# In ChEMBL document CHEMBL3525973, “Quantitative prediction of human intestinal glucuronidation effects on intestinal availability of UDP-glucuronosyltransferase substrates using in vitro data” (Drug Metab Dispos, 2012):
# How the values were obtained:
# in vitro = settings: human, blood and plasma
# Description: Ratio of drug level in blood to plasma in human
# [1] = target: T1, UDP-glucuronosyltransferase 1A7 (Homo sapiens, UniProt Q9HAW7); experiment: Activity of human UGT1A7 expressed in insect cells assessed as reduction in compound level after 30 mins; assay type: ADME; settings: 0.5 h
# T1 sequence (Q9HAW7 whole entry): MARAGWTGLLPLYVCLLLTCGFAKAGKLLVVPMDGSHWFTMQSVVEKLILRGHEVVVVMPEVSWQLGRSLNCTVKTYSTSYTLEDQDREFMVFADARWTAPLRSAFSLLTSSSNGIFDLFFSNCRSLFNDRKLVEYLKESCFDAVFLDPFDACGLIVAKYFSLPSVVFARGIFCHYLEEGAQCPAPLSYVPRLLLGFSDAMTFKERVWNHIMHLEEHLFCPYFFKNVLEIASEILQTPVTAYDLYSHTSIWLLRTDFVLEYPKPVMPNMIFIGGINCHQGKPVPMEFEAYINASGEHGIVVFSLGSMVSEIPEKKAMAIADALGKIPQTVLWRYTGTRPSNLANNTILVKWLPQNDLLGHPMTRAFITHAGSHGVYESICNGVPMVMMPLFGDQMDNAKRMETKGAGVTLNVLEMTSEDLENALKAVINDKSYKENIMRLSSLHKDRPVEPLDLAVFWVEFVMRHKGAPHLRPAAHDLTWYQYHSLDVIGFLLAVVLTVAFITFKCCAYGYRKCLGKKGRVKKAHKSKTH
# [2] = target: T2, UDP-glucuronosyltransferase 2B15 (Homo sapiens, UniProt P54855); experiment: Activity of human UGT2B15 expressed in insect cells assessed as reduction in compound level after 30 mins; assay type: ADME; settings: 0.5 h
# T2 sequence (P54855 whole entry): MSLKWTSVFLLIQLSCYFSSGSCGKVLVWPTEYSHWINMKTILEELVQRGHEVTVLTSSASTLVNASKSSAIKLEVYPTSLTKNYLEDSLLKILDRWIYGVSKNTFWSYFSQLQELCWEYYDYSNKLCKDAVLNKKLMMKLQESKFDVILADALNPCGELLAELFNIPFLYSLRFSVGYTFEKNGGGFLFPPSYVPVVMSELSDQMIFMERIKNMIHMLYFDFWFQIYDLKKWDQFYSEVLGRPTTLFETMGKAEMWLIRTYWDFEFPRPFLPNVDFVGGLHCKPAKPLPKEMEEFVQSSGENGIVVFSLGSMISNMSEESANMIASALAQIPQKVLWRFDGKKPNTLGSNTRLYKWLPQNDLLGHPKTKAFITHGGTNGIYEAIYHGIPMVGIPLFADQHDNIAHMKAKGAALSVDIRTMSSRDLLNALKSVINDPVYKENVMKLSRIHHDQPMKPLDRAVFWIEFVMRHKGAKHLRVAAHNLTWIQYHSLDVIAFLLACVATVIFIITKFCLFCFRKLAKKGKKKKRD
# clinical = settings: human, in vivo
# [3] = Unbound fraction during UGT-mediated glucuronidation in human intestinal microsomes
# [4] = target: T3, UDP-glucuronosyltransferase 1A9 (Homo sapiens, UniProt O60656); experiment: Activity of human UGT1A9 expressed in insect cells assessed as reduction in compound level after 30 mins; assay type: ADME; settings: 0.5 h
# T3 sequence (O60656 whole entry): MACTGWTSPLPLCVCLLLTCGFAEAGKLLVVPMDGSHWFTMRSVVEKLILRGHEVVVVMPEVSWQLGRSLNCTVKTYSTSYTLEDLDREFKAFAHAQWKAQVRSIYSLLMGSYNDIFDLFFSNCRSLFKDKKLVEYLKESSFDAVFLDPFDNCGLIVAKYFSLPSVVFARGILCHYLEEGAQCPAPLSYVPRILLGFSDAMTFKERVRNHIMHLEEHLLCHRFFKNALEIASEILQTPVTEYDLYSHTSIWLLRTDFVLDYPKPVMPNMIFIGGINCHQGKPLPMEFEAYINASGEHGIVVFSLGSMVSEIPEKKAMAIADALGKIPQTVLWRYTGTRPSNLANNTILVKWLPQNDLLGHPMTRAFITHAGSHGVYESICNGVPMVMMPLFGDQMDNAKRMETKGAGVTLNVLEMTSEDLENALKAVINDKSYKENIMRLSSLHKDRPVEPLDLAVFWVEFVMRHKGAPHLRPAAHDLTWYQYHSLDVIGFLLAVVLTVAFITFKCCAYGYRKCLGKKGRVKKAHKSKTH
# [5] = Unbound intrinsic clearance in human intestinal microsomes assessed UGT-mediated glucuronidation clearance
# [6] = target: T4, UDP-glucuronosyltransferase 1A1 (Homo sapiens, UniProt P22309); experiment: Activity of human UGT1A1 expressed in insect cells assessed as reduction in compound level after 30 mins; assay type: ADME; settings: 0.5 h
# T4 sequence (P22309 whole entry): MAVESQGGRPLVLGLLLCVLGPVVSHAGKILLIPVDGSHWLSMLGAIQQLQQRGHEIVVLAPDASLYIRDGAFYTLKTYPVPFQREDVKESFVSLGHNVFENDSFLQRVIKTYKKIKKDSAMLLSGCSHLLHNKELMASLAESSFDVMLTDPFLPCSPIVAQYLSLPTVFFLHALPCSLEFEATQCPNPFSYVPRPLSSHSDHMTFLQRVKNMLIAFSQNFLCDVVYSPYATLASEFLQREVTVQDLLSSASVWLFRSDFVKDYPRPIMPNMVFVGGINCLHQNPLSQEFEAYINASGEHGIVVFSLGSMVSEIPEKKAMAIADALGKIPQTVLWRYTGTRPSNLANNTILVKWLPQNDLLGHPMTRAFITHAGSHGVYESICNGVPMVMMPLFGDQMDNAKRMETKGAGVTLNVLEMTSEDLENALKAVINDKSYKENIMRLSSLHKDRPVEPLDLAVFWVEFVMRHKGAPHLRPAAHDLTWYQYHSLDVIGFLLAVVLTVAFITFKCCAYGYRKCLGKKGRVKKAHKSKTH
# [7] = Apparent permeability by PAMPA method
# [8] = Intrinsic clearance in human intestinal microsomes assessed UGT-mediated glucuronidation clearance
# [9] = target: T5, UDP-glucuronosyltransferase 2B7 (Homo sapiens, UniProt P16662); experiment: Activity of human UGT2B7 expressed in insect cells assessed as reduction in compound level after 30 mins; assay type: ADME; settings: 0.5 h
# T5 sequence (P16662 whole entry): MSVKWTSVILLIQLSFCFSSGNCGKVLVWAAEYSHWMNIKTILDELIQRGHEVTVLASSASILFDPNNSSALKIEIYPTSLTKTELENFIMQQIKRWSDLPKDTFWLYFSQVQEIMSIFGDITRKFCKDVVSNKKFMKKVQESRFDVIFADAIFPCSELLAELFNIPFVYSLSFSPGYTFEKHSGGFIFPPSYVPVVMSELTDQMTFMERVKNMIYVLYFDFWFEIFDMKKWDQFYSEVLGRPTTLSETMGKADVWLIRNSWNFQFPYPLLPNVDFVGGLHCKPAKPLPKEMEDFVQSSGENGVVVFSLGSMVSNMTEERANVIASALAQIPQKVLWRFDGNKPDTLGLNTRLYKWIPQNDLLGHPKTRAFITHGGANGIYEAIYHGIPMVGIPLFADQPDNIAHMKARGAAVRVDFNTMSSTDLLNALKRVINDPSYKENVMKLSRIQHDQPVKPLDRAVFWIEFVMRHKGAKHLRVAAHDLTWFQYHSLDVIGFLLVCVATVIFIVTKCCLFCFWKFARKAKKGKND
# [10] = Intrinsic clearance in human intestinal microsomes assessed CYP450-mediated glucuronidation clearance; settings: microsomes
# [11] = Unbound intrinsic clearance in human intestinal microsomes assessed CYP450-mediated glucuronidation clearance
# [12] = Bioavailability in human; assay type: ADME, organism-based; settings: in vivo
blood plasma ratio (in vitro),Drug metabolism [1],Drug metabolism [2],clearance (clinical) [mL/min/kg],fraction unbound ([3]; intestinal microsomes),Drug metabolism [4],CL free [5] [µL/min/mg],Drug metabolism [6],Papp [7] [×10⁻⁶ cm/s],microsomal CLint ([8]; intestinal microsomes) [µL/min/mg],Drug metabolism [9],CL [10],fraction unbound ([3]; microsomes),CL free [11],bioavailability [12] [%],microsomal CLint ([8]; microsomes) [µL/min/mg],Structure (SMILES)
0.66,metabolite_detected,metabolite_detected,2.2,0.88,metabolite_detected,176,metabolite_detected,14,155,metabolite_detected,–,–,–,–,–,Cc1c(Cl)cccc1Nc1ccccc1C(=O)O [TOLFENAMIC ACID]
0.58,–,–,–,–,–,17.5,–,< 0.1,–,metabolite_detected,metabolite_not_detected,0.97,metabolite_not_detected,100,17,Cc1ccc(C)c(OCCCC(C)(C)C(=O)O)c1 [GEMFIBROZIL]
